From US12528814B2, “Bifunctional degraders of interleukin-1 receptor-associated kinases and therapeutic use thereof” (NURIX THERAPEUTICS, INC., priority 2020, dated 2026)
Like-named read-outs stand apart in the source and are kept apart here.

Experiments:
IRAK4 [1] = target: T1, IRAK4 (Homo sapiens (Human), UniProt Q9NWZ3); experiment: IRAK4 Biochemical HTRF Kinase Assay; settings: read-out: IRAK4 HTRF biochemical: IC50
Outline: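 IC50 values derive from non-linear regression of sixteen concentrations in duplicate. Kinase reaction ran 90 min at ambient temperature after adding 5 μM STK-S1 substrate, 10 mM ATP and 10 mM MgCl2 (reaction-solution levels, pre-dilution to 10 μl); phospho-peptide detected by HTRF after 60 min.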
Target sequence in this assay (Q9NWZ3 whole entry, species assumed): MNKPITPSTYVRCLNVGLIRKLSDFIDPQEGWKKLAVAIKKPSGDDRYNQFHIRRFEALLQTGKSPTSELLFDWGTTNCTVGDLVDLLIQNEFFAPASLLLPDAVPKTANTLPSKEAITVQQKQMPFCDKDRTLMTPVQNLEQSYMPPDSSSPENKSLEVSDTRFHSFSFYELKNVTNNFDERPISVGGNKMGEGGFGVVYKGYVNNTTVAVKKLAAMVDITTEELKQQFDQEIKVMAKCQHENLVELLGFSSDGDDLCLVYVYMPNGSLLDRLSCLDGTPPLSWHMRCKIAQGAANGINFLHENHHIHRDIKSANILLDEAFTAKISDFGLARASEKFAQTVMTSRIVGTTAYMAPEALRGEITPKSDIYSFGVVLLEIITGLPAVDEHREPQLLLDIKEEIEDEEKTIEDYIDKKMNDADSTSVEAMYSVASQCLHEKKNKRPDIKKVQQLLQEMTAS

IRAK4 [2] = target: T1, IRAK4; experiment: IRAK4 Degradation HiBiT Assay; settings: HiBiT-tagged Jurkat cells, 4 hrs; for Dmax: Jurkat; for DC50: read-out: Cellular IRAK4 HiBiT: DC50
Target sequence in this assay (Q9NWZ3 whole entry): as the sequence (Q9NWZ3 whole entry, species assumed) above

[3] = read-out: Cellular IRAK4 HiBiT: Dmax, Table 5, multiple runs
[4] = read-out: Cellular IRAK4 HiBiT: Dmax, Table 4

SMILES | IC50 (IRAK4 [1]; Table 5, multiple runs) | Dmax (IRAK4 [2]; [3]) | DC50 (IRAK4 [2]; Table 5, multiple runs) | Cellular IRAK4 HiBiT: Dmax (IRAK4 [2]; Table 5, multiple runs) | IC50 (IRAK4 [1]; Table 4) | Dmax (IRAK4 [2]; [4]) | DC50 (IRAK4 [2]; Table 4)
CNc1cc(-c2ccc3cc(C#N)cnn23)ncc1-c1nnc([C@H]2CC[C@@H](NC(=O)CCCCCNc3cccc4c3C(=O)N(C3CCC(=O)NC3=O)C4=O)CC2)s1 (some centres unmarked) [Example 120, N-((1s,4s)-4-(5-(6-(3-cyanopyrrolo[1,2-b]pyridazin-7-yl)-4-(methylamino)pyridin-3-yl)-1,3,4-thiadiazol-2-yl)cyclohexyl)-6-((2-(2,6-dioxopiperidin-3-yl)-1,3-dioxoisoindolin-4-yl)amino)hexanamide] | 1.1 nM | – | 33.4 nM | 32% | – | – | –
CNc1cc(-c2ccc3cc(C#N)cnn23)ncc1-c1nnc([C@H]2CC[C@H](NC(=O)CCOCCC(=O)N[C@H](C(=O)N3C[C@H](O)C[C@H]3C(=O)N[C@@H](C)c3ccc(-c4scnc4C)cc3)C(C)(C)C)CC2)s1 [Example 61, (2S,4R)-1-((S)-2-(3-(3-(((1r,4S)-4-(5-(6-(3-cyanopyrrolo[1,2-b]pyridazin-7-yl)-4-(methylamino)pyridin-3-yl)-1,3,4-thiadiazol-2-yl)cyclohexyl)amino)-3-oxopropoxy)propanamido)-3,3-dimethylbutanoyl)-4-hydroxy-N—((S)-1-(4-(4-methylthiazol-5-yl)phenyl)ethyl)pyrrolidine-2-carboxamide] | 4 nM | 121% | 399 nM | – | 3.98 nM | 117% | 591 nM
CC(C)Nc1cc(-c2ccc3cc(C#N)cnn23)ncc1-c1nnc(N2CCN(C3CCN(C[C@H]4CCN(c5ccc6c(c5)C(=O)N(C5CCC(=O)NC5=O)C6=O)C4)CC3)CC2)s1 (stereo partly drawn) [Example 17, 7-(5-(5-(4-(1-(((3R)-1-(2-(2,6-dioxopiperidin-3-yl)-1,3-dioxoisoindolin-5-yl)pyrrolidin-3-yl)methyl)piperidin-4-yl)piperazin-1-yl)-1,3,4-thiadiazol-2-yl)-4-(isopropylamino)pyridin-2-yl)pyrrolo[1,2-b]pyridazine-3-carbonitrile] | 1.4 nM | 77% | 168 nM | – | 1.4 nM | 69% | 139 nM
CNc1cc(-c2ccc3cc(C#N)cnn23)ncc1-c1nnc([C@H]2CC[C@H](NC(=O)C[C@H](NC(=O)[C@@H]3C[C@@H](O)CN3C(=O)[C@@H](NC(=O)C3(F)CC3)C(C)(C)C)c3ccc(-c4scnc4C)cc3)CC2)s1 [Example 118, (2S,4R)—N—((S)-3-(((1r,4S)-4-(5-(6-(3-cyanopyrrolo[1,2-b]pyridazin-7-yl)-4-(methylamino)pyridin-3-yl)-1,3,4-thiadiazol-2-yl)cyclohexyl)amino)-1-(4-(4-methylthiazol-5-yl)phenyl)-3-oxopropyl)-1-((S)-2-(1-fluorocyclopropane-1-carboxamido)-3,3-dimethylbutanoyl)-4-hydroxypyrrolidine-2-carboxamide] | 1.4 nM | 118% | 35.2 nM | – | – | – | –
CNc1cc(-c2ccc3cc(C#N)cnn23)ncc1-c1nnc(N2CCC(NC(=O)C[C@H](NC(=O)[C@@H]3C[C@@H](O)CN3C(=O)[C@@H](NC(=O)C3(F)CC3)C(C)(C)C)c3ccc(-c4scnc4C)cc3)CC2)s1 [Example 146, (2S,4R)—N—((S)-3-((1-(5-(6-(3-cyanopyrrolo[1,2-b]pyridazin-7-yl)-4-(methylamino)pyridin-3-yl)-1,3,4-thiadiazol-2-yl)piperidin-4-yl)amino)-1-(4-(4-methylthiazol-5-yl)phenyl)-3-oxopropyl)-1-((S)-2-(1-fluorocyclopropane-1-carboxamido)-3,3-dimethylbutanoyl)-4-hydroxypyrrolidine-2-carboxamide] | 2.9 nM | 77% | 231 nM | – | – | – | –
CC(C)Nc1cc(-c2ccc3cc(C#N)cnn23)ncc1-c1nnc(N2CCN(C(=O)CCCCCNc3ccc4c(c3)C(=O)N(C3CCC(=O)NC3=O)C4=O)CC2)s1 (centres unmarked) [Example 6, 7-(5-(5-(4-(6-((2-(2,6-dioxopiperidin-3-yl)-1,3-dioxoisoindolin-5-yl)amino)hexanoyl)piperazin-1-yl)-1,3,4-thiadiazol-2-yl)-4-(isopropylamino)pyridin-2-yl)pyrrolo[1,2-b]pyridazine-3-carbonitrile] | 2.6 nM | 69% | 70 nM | – | 2.6 nM | 82% | 74.6 nM
CC(C)Nc1cc(-c2ccc3cc(C#N)cnn23)ncc1-c1nnc(N2CCN(C(=O)CNc3cccc4c3C(=O)N(C3CCC(=O)NC3=O)C4=O)CC2)s1 (centres unmarked) [Example 31, 7-(5-(5-(4-((2-(2,6-dioxopiperidin-3-yl)-1,3-dioxoisoindolin-4-yl)glycyl)piperazin-1-yl)-1,3,4-thiadiazol-2-yl)-4-(isopropylamino)pyridin-2-yl)pyrrolo[1,2-b]pyridazine-3-carbonitrile] | 1.7 nM | 39% | 105 nM | – | 1.8 nM | 39% | 106 nM
CC(C)Nc1cc(-c2ccc3cc(C#N)cnn23)ncc1-c1nnc(N2CCN(C(=O)CCOCCNc3ccc4c(c3)C(=O)N(C3CCC(=O)NC3=O)C4=O)CC2)s1 (centres unmarked) [Example 10, 7-(5-(5-(4-(3-(2-((2-(2,6-dioxopiperidin-3-yl)-1,3-dioxoisoindolin-5-yl)amino)ethoxy)propanoyl)piperazin-1-yl)-1,3,4-thiadiazol-2-yl)-4-(isopropylamino)pyridin-2-yl)pyrrolo[1,2-b]pyridazine-3-carbonitrile] | 1 nM | 103% | 49.1 nM | – | 1 nM | 103% | 49.1 nM

Stronger by IC50 (IRAK4 [1]; Table 5, multiple runs), values ahead:

IC50 (IRAK4 [1]; Table 5, multiple runs) | Dmax (IRAK4 [2]; [3]) | DC50 (IRAK4 [2]; Table 5, multiple runs) | Cellular IRAK4 HiBiT: Dmax (IRAK4 [2]; Table 5, multiple runs) | IC50 (IRAK4 [1]; Table 4) | Dmax (IRAK4 [2]; [4]) | DC50 (IRAK4 [2]; Table 4) | SMILES
0.9 nM | 24% | 10.6 nM | – | – | – | – | CNc1cc(-c2ccc3cc(C#N)cnn23)ncc1-c1nnc([C@H]2CC[C@H](NC(=O)C3CCN(c4cccc5c4C(=O)N(C4CCC(=O)NC4=O)C5=O)CC3)CC2)s1 (some centres unmarked) [Example 139, N-((1r,4r)-4-(5-(6-(3-cyanopyrrolo[1,2-b]pyridazin-7-yl)-4-(methylamino)pyridin-3-yl)-1,3,4-thiadiazol-2-yl)cyclohexyl)-1-(2-(2,6-dioxopiperidin-3-yl)-1,3-dioxoisoindolin-4-yl)piperidine-4-carboxamide]
0.8 nM | – | > 9980 nM | – | – | – | – | CNc1cc(-c2ccc3cc(C#N)cnn23)ncc1-c1nnc(N2CCC(NC(=O)C3CCN(c4cccc5c4C(=O)N(C4CCC(=O)NC4=O)C5=O)CC3)CC2)s1 (centres unmarked) [Example 90, N-(1-(5-(6-(3-cyanopyrrolo[1,2-b]pyridazin-7-yl)-4-(methylamino)pyridin-3-yl)-1,3,4-thiadiazol-2-yl)piperidin-4-yl)-1-(2-(2,6-dioxopiperidin-3-yl)-1,3-dioxoisoindolin-4-yl)piperidine-4-carboxamide]
0.8 nM | 116% | 65.5 nM | – | – | – | – | CNc1cc(-c2ccc3cc(C#N)cnn23)ncc1-c1nnc([C@H]2CC[C@H](NC(=O)C3CN(C4CCN(c5ccc6c(c5)C(=O)N(C5CCC(=O)NC5=O)C6=O)CC4)C3)CC2)s1 (some centres unmarked) [Example 138, N-((1r,4r)-4-(5-(6-(3-cyanopyrrolo[1,2-b]pyridazin-7-yl)-4-(methylamino)pyridin-3-yl)-1,3,4-thiadiazol-2-yl)cyclohexyl)-1-(1-(2-(2,6-dioxopiperidin-3-yl)-1,3-dioxoisoindolin-5-yl)piperidin-4-yl)azetidine-3-carboxamide]
0.7 nM | 93% | 34.2 nM | – | – | – | – | CNc1cc(-c2ccc3cc(C#N)cnn23)ncc1-c1nnc(C23CCC(NC(=O)CCOCCOCCOCCNc4cccc5c4C(=O)N(C4CCC(=O)NC4=O)C5=O)(CC2)CC3)s1 (centres unmarked) [Example 110, N-(4-(5-(6-(3-cyanopyrrolo[1,2-b]pyridazin-7-yl)-4-(methylamino)pyridin-3-yl)-1,3,4-thiadiazol-2-yl)bicyclo[2.2.2]octan-1-yl)-3-(2-(2-(2-((2-(2,6-dioxopiperidin-3-yl)-1,3-dioxoisoindolin-4-yl)amino)ethoxy)ethoxy)ethoxy)propanamide]
0.6 nM | 85% | 7.6 nM | – | 0.7 nM | 80% | 8.1 nM | CNc1cc(-c2ccc3cc(C#N)cnn23)ncc1-c1nnc([C@H]2CC[C@H](NC(=O)CCOCCNc3ccc4c(c3)C(=O)N(C3CCC(=O)NC3=O)C4=O)CC2)s1 (some centres unmarked) [Example 63, N-((1r,4r)-4-(5-(6-(3-cyanopyrrolo[1,2-b]pyridazin-7-yl)-4-(methylamino)pyridin-3-yl)-1,3,4-thiadiazol-2-yl)cyclohexyl)-3-(2-((2-(2,6-dioxopiperidin-3-yl)-1,3-dioxoisoindolin-5-yl)amino)ethoxy)propanamide]
0.5 nM | 105% | 14.8 nM | – | – | – | – | CNc1cc(-c2ccc3cc(C#N)cnn23)ncc1-c1nnc(N2CC3(CCN(C(=O)CN4CCN(c5ccc6c(c5)C(=O)N(C5CCC(=O)NC5=O)C6=O)CC4)CC3)C2)s1 (centres unmarked) [Example 177, 7-(5-(5-(7-(2-(4-(2-(2,6-dioxopiperidin-3-yl)-1,3-dioxoisoindolin-5-yl)piperazin-1-yl)acetyl)-2,7-diazaspiro[3.5]nonan-2-yl)-1,3,4-thiadiazol-2-yl)-4-(methylamino)pyridin-2-yl)pyrrolo[1,2-b]pyridazine-3-carbonitrile]
